# Patent US7635788B2, “Alpha-amino acid derivatives with antiinflammatory activity” (Italfarmaco SpA, priority 2004, dated 2009)
# Tests used:
# [1] = system: human hepatoma cell line Hep-G2; experiment: Cytotoxicity towards tumour cells in vitro (Cell Titer 96 formazane colorimetric assay); assay type: cell-based; details: 48 h, percentage inhibition of the formation of formazane relative to the control
# Method: The cytotoxicity of some compounds described in the preceding Examples was evaluated in vitro on human hepatoma cell line Hep-G2, by means of a commercial colorimetric method (Cell Titer 96® Aque ous One Solution Cell Proliferation Assay—Promega); the method determines the number of viable cells on the basis of their capacity to metabolise a tetrazolium salt producing formazane. The quantity of formazane produced is proportional to the number of viable cells.
# The Hep-G2 cells are distributed 96 well microplates at a density of 4×10^4 cells/well (100 μl), in M199 medium containing 10% foetal bovine serum and supplements (complete medium).
# After 24 hours' incubation (37° C., 5% CO2, 90% humidity), the cells are washed once and the medium is replenished with 200 μl of complete medium containing the substances to be tested at the final concentration of 10^−5, 10^−6 and 10^−7M. The test is performed in triplicate.
# The plates are incubated for a further 48 h, at the end of which 100 μl of medium are removed and 20 μl/well of staining solution are added in accordance with the supplier's instructions. Optical density (λ=490 nm) is read after 1 hour's incubation at 37° C. using a plate reader (Victor2—Wallac Perkin Elmer).
# [2] = system: TNFα production by peripheral blood mononucleocytes stimulated with LPS; experiment: Inhibition of TNFα production by human monocytes stimulated with LPS; assay type: cell-based; details: LPS 10 ng/ml, 24 hours, ELISA
# Method: The compounds were dissolved in DMSO at a final concentration of 10 mM.
# The solutions for the assay were prepared by diluting the mother solutions in RPMI 1640 with the addition of 1% FCS and 0.01% DMSO and were filtered with 0.2 μm filters.
# The peripheral blood mononucleocytes were obtained from blood from healthy donors by separation in a Ficoll-Hypaque gradient [C. G. Figdor, et al. Blood, 1982, 60: 46-53]. The cells were sown in 96-well plates, at a concentration of approx. 500,000 cells per well, suspended in RPMI 1640 containing 1% FCS and were incubated at 37° C. in the presence of different concentrations (from 10^−6 to 10^−11M) of the compounds to be investigated. After 1 hour, LPS was added (at a final concentration of 10 ng/ml; obtained from E. coli 055:B5) and the plates were incubated at 37° C. for a further 24 hours. At the end of this period, the supernatants were collected and used for the determination of TNFα content by means of ELISA (DuoSet ELISA kit; R&D Systems, Minneapolis, Minn., USA).
# The concentration of TNFα was calculated using a calibration curve and the IC50 values (the concentration which brings about 50% inhibition of the production of the cytokine) were calculated from the curve obtained by plotting the percentage inhibition values for each individual concentration of the compound under investigation.
smiles,measurement,setting,value
"O=C(NO)c1ccc(NC(=O)[C@H](Cc2ccc(-c3ccccc3)cc2)NC(=O)c2ccc3ccccc3c2)cc1 [Example 2y, N-[1(S)-(4-hydroxycarbamoyl-phenylcarbamoyl)-2-(biphenyl-4-yl)-ethyl]-amide of naphthalene-2-carboxylic acid]",Cytotoxicity at 10^−5 M,[1]; 10^−5 M,73.7%
same,Cytotoxicity at 10^−6 M,[1]; 10^−6 M,20.4%
same,IC50,[2],0.0213 µM
